Data reported in patent publication US7854753B2, “Photokinetic delivery of biologically active substances using pulsed incoherent light” (Photokinetix, Inc., priority 2002, dated 2010).

Legend:
[1] = volume of water for 1 g; cited from earlier work
[2] = Franz skin diffusion cell permeation (percutaneous absorption) under ambient, natural or pulsed incoherent LED light; settings: for Permeation Dark: ambient light absent; for Ctrl / Ctrl-TiO2: Table 8 (405 nm series); for Ctrl: ambient light only; for Ctrl-TiO2 / Effect of 2% (w/w) TiO2 on permeation: ambient light; for Ctrl-TiO2: 2% TiO2; for Ctrl-TiO2/1.7 / Ctrl-TiO2/9.7 / Ctrl-TiO2/24: Table 8, 405 nm series; for Ctrl-TiO2/1.7: 2% TiO2, 1.7 cps; for Ctrl-TiO2/9.7: 2% TiO2, 9.7 cps; for Ctrl-TiO2/24: 2% TiO2, 24 cps; for 405/1.7 / 405/9.7 / 405/24: Table 8; for 405/24: 24 cps; for Permeation Ctrl: ambient cool fluorescent light only, 260-750 nm, 120 cps; for Permeation Ctrl-TiO2: ambient fluorescent light, sample with 2% (w/w) rutile TiO2; for Effect of 2% (w/w) TiO2 on permeation: FIG. 4

## Cc1ncc(CO)c(CO)c1O [Compound 5, Pyridoxine]
[1]
  Water Solubility (1 g): 4.5 mL
[2]; Dark control
  Permeation Dark: 261.30 μg/0.64 cm^2/25 hrs
[2]
  Ctrl: 32.90
  Ctrl-TiO2: 806.25
  Ctrl-TiO2/1.7: 537.60
  Ctrl-TiO2/9.7: 862.75
  Ctrl-TiO2/24: 0.00
  Permeation Ctrl: 32.90 μg/0.64 cm^2/25 hrs
  Permeation Ctrl-TiO2: 806.20 μg/0.64 cm^2/25 hrs
  Effect of 2% (w/w) TiO2 on permeation: significant effect
[2]; 405 nm, 1.7 cps
  405/1.7: 179.38
[2]; 405 nm, 9.7 cps
  405/9.7: 0.00
[2]; 405 nm
  405/24: 187.81

## O=C(O)c1cccnc1 [Compound 6, Nicotinic acid]
[1]
  Water Solubility (1 g): 60 mL
[2]; Dark control
  Permeation Dark: 976.30 μg/0.64 cm^2/25 hrs
[2]
  Ctrl: 0.00
  Ctrl-TiO2: 1371.00
  Permeation Ctrl: 0.00 μg/0.64 cm^2/25 hrs
  Permeation Ctrl-TiO2: 1371.00 μg/0.64 cm^2/25 hrs
  Effect of 2% (w/w) TiO2 on permeation: significant effect

## Cn1cnc2c1c(=O)[nH]c(=O)n2C [Compound 7, Theobromine]
[1]
  Water Solubility (1 g): 2000 mL

## Cn1c(=O)c2[nH]cnc2n(C)c1=O [Compound 8, Theophylline]
[1]
  Water Solubility (1 g): 120 mL

## NC(=O)c1cccnc1 [Compound 10, Nicotinamide]
[1]
  Water Solubility (1 g): 1 mL
[2]; Dark control
  Permeation Dark: 543.70 μg/0.64 cm^2/25 hrs
[2]
  Ctrl: 42.72
  Ctrl-TiO2: 851.83
  Ctrl-TiO2/1.7: 668.31
  Ctrl-TiO2/9.7: 1387.33
  Ctrl-TiO2/24: 0.00
  Permeation Ctrl: 42.72 μg/0.64 cm^2/25 hrs
  Permeation Ctrl-TiO2: 851.80 μg/0.64 cm^2/25 hrs
  Effect of 2% (w/w) TiO2 on permeation: significant effect
[2]; 405 nm, 1.7 cps
  405/1.7: 26.22
[2]; 405 nm, 9.7 cps
  405/9.7: 32.69
[2]; 405 nm
  405/24: 0.00

## C[C@]12CCC(=O)C=C1CC[C@@H]1[C@@H]2CC[C@@]2(C)[C@H]1CC[C@]2(C)O [Compound 17, Methyl Testosterone]
[1]
  Water Solubility (1 g): Insoluble
[2]; 350 nm LED, pulse rate 24 cps, 75% duty cycle
  Permeation 350: 153.25 μg/0.64 cm^2/25 hrs
[2]; 350 nm, 1.7 cps
  Permeation 1.7 cps: 12.84 μg/0.64 cm^2/25 hrs
[2]; 350 nm, 9.7 cps
  Permeation 9.7 cps: 29.57 μg/0.64 cm^2/25 hrs
[2]; 405 nm LED, pulse rate 24 cps, 75% duty cycle
  Permeation 405: 25.37 μg/0.64 cm^2/25 hrs
[2]; Dark control
  Permeation Dark: 0.00 μg/0.64 cm^2/25 hrs
[2]
  Permeation Ctrl: 0.00 μg/0.64 cm^2/25 hrs
  Permeation Ctrl-TiO2: 0.00 μg/0.64 cm^2/25 hrs

## C[C@@H]1[C@H](O)[C@@H](C)/C=C/C=C/C=C/C=C/C=C/C=C/C=C/[C@H](O[C@@H]2O[C@H](C)[C@@H](O)[C@H](N)[C@@H]2O)C[C@@H]2O[C@](O)(C[C@@H](O)C[C@@H](O)[C@H](O)CC[C@@H](O)C[C@@H](O)CC(=O)O[C@H]1C)C[C@H](O)[C@H]2C(=O)O [Compound 21, Amphotericin B]
[2]; 350 + TiO2, 8 cps vs Dark-TiO2
  % Permeation (percent increase or decrease vs dark baseline, equation 1): 49.51%
[2]; 350 + TiO2, 24 cps vs Dark-TiO2
  % Permeation (percent increase or decrease vs dark baseline, equation 1): 71.32%
[2]; 350 + TiO2, 80 cps vs Dark-TiO2
  % Permeation (percent increase or decrease vs dark baseline, equation 1): 18.24%
[2]; 350 + TiO2, pulse rate 8 cps
  Permeation: 1.54 μg/cm^2/24 hrs
[2]; 350 + TiO2, pulse rate 24 cps
  Permeation: 2.33 μg/cm^2/24 hrs
[2]; 350 + TiO2, pulse rate 80 cps
  Permeation: 2.01 μg/cm^2/24 hrs
[2]; 350 nm LED, pulse rate 8 cps
  Permeation: 1.19 μg/cm^2/24 hrs
[2]; 350 nm LED, pulse rate 24 cps
  Permeation: 3.35 μg/cm^2/24 hrs
[2]; 350 nm LED, pulse rate 80 cps
  Permeation: 2.81 μg/cm^2/24 hrs
[2]; 350 nm, 8 cps vs Dark
  % Permeation (percent increase or decrease vs dark baseline, equation 1): 60.81%
[2]; 350 nm, 24 cps vs Dark
  % Permeation (percent increase or decrease vs dark baseline, equation 1): 66.67%
[2]; 350 nm, 80 cps vs Dark
  % Permeation (percent increase or decrease vs dark baseline, equation 1): −11.36%
[2]; 390 + TiO2, 8 cps vs Dark-TiO2
  % Permeation (percent increase or decrease vs dark baseline, equation 1): 91.26%
[2]; 390 + TiO2, 24 cps vs Dark-TiO2
  % Permeation (percent increase or decrease vs dark baseline, equation 1): 48.53%
[2]; 390 + TiO2, 80 cps vs Dark-TiO2
  % Permeation (percent increase or decrease vs dark baseline, equation 1): 241.18%
[2]; 390 + TiO2, pulse rate 8 cps
  Permeation: 1.97 μg/cm^2/24 hrs
[2]; 390 + TiO2, pulse rate 24 cps
  Permeation: 2.02 μg/cm^2/24 hrs
[2]; 390 + TiO2, pulse rate 80 cps
  Permeation: 5.80 μg/cm^2/24 hrs
[2]; 390 nm LED, pulse rate 8 cps
  Permeation: 1.11 μg/cm^2/24 hrs
[2]; 390 nm LED, pulse rate 24 cps
  Permeation: 1.88 μg/cm^2/24 hrs
[2]; 390 nm LED, pulse rate 80 cps
  Permeation: 3.94 μg/cm^2/24 hrs
[2]; 390 nm, 8 cps vs Dark
  % Permeation (percent increase or decrease vs dark baseline, equation 1): 50.00%
[2]; 390 nm, 24 cps vs Dark
  % Permeation (percent increase or decrease vs dark baseline, equation 1): −6.47%
[2]; 390 nm, 80 cps vs Dark
  % Permeation (percent increase or decrease vs dark baseline, equation 1): 24.29%
[2]; 405 + TiO2, 8 cps vs Dark-TiO2
  % Permeation (percent increase or decrease vs dark baseline, equation 1): 33.01%
[2]; 405 + TiO2, 24 cps vs Dark-TiO2
  % Permeation (percent increase or decrease vs dark baseline, equation 1): 817.65%
[2]; 405 + TiO2, 80 cps vs Dark-TiO2
  % Permeation (percent increase or decrease vs dark baseline, equation 1): 180.59%
[2]; 405 + TiO2, pulse rate 8 cps
  Permeation: 1.37 μg/cm^2/24 hrs
[2]; 405 + TiO2, pulse rate 24 cps
  Permeation: 12.48 μg/cm^2/24 hrs
[2]; 405 + TiO2, pulse rate 80 cps
  Permeation: 4.77 μg/cm^2/24 hrs
[2]; 405 nm LED, pulse rate 8 cps
  Permeation: 1.26 μg/cm^2/24 hrs
[2]; 405 nm LED, pulse rate 24 cps
  Permeation: 1.83 μg/cm^2/24 hrs
[2]; 405 nm LED, pulse rate 80 cps
  Permeation: 7.23 μg/cm^2/24 hrs
[2]; 405 nm, 8 cps vs Dark
  % Permeation (percent increase or decrease vs dark baseline, equation 1): 70.27%
[2]; 405 nm, 24 cps vs Dark
  % Permeation (percent increase or decrease vs dark baseline, equation 1): −8.96%
[2]; 405 nm, 80 cps vs Dark
  % Permeation (percent increase or decrease vs dark baseline, equation 1): 129.65%
[2]; 450 + TiO2, 8 cps vs Dark-TiO2
  % Permeation (percent increase or decrease vs dark baseline, equation 1): 110.68%
[2]; 450 + TiO2, 24 cps vs Dark-TiO2
  % Permeation (percent increase or decrease vs dark baseline, equation 1): 8.82%
[2]; 450 + TiO2, 80 cps vs Dark-TiO2
  % Permeation (percent increase or decrease vs dark baseline, equation 1): 198.82%
[2]; 450 + TiO2, pulse rate 8 cps
  Permeation: 2.17 μg/cm^2/24 hrs
[2]; 450 + TiO2, pulse rate 24 cps
  Permeation: 1.48 μg/cm^2/24 hrs
[2]; 450 + TiO2, pulse rate 80 cps
  Permeation: 5.08 μg/cm^2/24 hrs
[2]; 450 nm LED, pulse rate 8 cps
  Permeation: 0.80 μg/cm^2/24 hrs
[2]; 450 nm LED, pulse rate 24 cps
  Permeation: 1.19 μg/cm^2/24 hrs
[2]; 450 nm LED, pulse rate 80 cps
  Permeation: 9.26 μg/cm^2/24 hrs
[2]; 450 nm, 8 cps vs Dark
  % Permeation (percent increase or decrease vs dark baseline, equation 1): 8.11%
[2]; 450 nm, 24 cps vs Dark
  % Permeation (percent increase or decrease vs dark baseline, equation 1): −40.80%
[2]; 450 nm, 80 cps vs Dark
  % Permeation (percent increase or decrease vs dark baseline, equation 1): 192.11%
[2]; Dark control, 8 cps series
  Permeation: 0.74 μg/cm^2/24 hrs
[2]; Dark control, 24 cps series
  Permeation: 2.01 μg/cm^2/24 hrs
[2]; Dark control, 80 cps series
  Permeation: 3.17 μg/cm^2/24 hrs
[2]; Dark-TiO2 control (2% TiO2), 8 cps series
  Permeation: 1.03 μg/cm^2/24 hrs
[2]; Dark-TiO2 control (2% TiO2), 24 cps series
  Permeation: 1.36 μg/cm^2/24 hrs
[2]; Dark-TiO2 control (2% TiO2), 80 cps series
  Permeation: 1.70 μg/cm^2/24 hrs
[2]; Day (natural daylight, not pulsed), control of the 8 cps series
  Permeation: 0.84 μg/cm^2/24 hrs
[2]; Day (natural daylight, not pulsed), control of the 24 cps series
  Permeation: 1.59 μg/cm^2/24 hrs
[2]; Day (natural daylight, not pulsed), control of the 80 cps series
  Permeation: 2.52 μg/cm^2/24 hrs
[2]; Day vs Dark, 8 cps series
  % Permeation (percent increase or decrease vs dark baseline, equation 1): 13.51%
[2]; Day vs Dark, 24 cps series
  % Permeation (percent increase or decrease vs dark baseline, equation 1): −20.90%
[2]; Day vs Dark, 80 cps series
  % Permeation (percent increase or decrease vs dark baseline, equation 1): −20.50%
[2]; Day-TiO2 (natural daylight, 2% TiO2, not pulsed), control of the 8 cps series
  Permeation: 0.70 μg/cm^2/24 hrs
[2]; Day-TiO2 (natural daylight, 2% TiO2, not pulsed), control of the 24 cps series
  Permeation: 0.89 μg/cm^2/24 hrs
[2]; Day-TiO2 (natural daylight, 2% TiO2, not pulsed), control of the 80 cps series
  Permeation: 4.09 μg/cm^2/24 hrs
[2]; Day-TiO2 vs Dark-TiO2, 8 cps series
  % Permeation (percent increase or decrease vs dark baseline, equation 1): −32.04%
[2]; Day-TiO2 vs Dark-TiO2, 24 cps series
  % Permeation (percent increase or decrease vs dark baseline, equation 1): −34.56%
[2]; Day-TiO2 vs Dark-TiO2, 80 cps series
  % Permeation (percent increase or decrease vs dark baseline, equation 1): 140.59%
